Test results as given in patent publication US12528805B2, “Solid forms of emetine” (Acer Therapeutics, Inc., priority 2020, dated 2026).
Counter-ions that a name gives are not always drawn.

What was measured:
[1] = Solid form stability on storage (XRPD re-analysis); assay type: physicochemical; settings: stored at 40° C./75% RH for 22 h
Method: The solids were dried under vacuum at ambient temperature (about 23° C.) for 17 h. The solids on the XRPD plate were stored at 40° C./75% RH for 22 h then re-analyzed. Amorphous and a mixture of Compound I dihydrochloride Form 2 and Form 6 were obtained (Table 7).
The solids were isolated by filtration after a total of 27.5 h at 5° C. and washed with 0.6 mL of cold acetone or 3×0.6 mL of cold heptane. The solids were dried under vacuum at ambient temperature (about 23° C.) for 17 h. The solids on the XRPD plate were stored at 40° C./75% RH for 22 h then re-analyzed by XRPD. Results, which are summarized in Table 8, show mixtures of Compound I dihydrochloride Forms 5 and 6, 5, 2 and 1, and 2 were obtained.
1.0 mL of water was added to approximately 300 mg of Compound I dihydrochloride Form 1. The resulting mixture was magnetically stirred at 50° C. over about 15 min, then stirred at 50° C. for 0.25 h. The solution was polish filtered (0.45 μm PTFE filter) into a 2 mL push-cap vial and then stirred at 50° C. for 0.25 h, prior to cooling to 5° C. at 0.1° C./min. After 62 h at 5° C., the experiment was sub-sampled and the solid was analyzed by XRPD. The material on the XRPD plate was dried under vacuum at 35° C. under a stream of wet nitrogen (20-38% RH) for about 9 h and then re-analyzed by XRPD. The material on the XRPD plate was stored at 25° C./60% RH for 22 h and then re-analyzed by XRPD. After a total of 87 h at 5° C., solids were isolated by centrifugation (0.22 μm nylon filter) and analyzed by XRPD. The solids were air-dried at ambient temperature (about 22° C.) for 24 h.
Small-scale crystallization Experiment 7 was sub-sampled prior to ASA and after ASA was complete, with solids isolated by centrifugation (0.22 μm nylon filter) and analyzed by XRPD.
Approximately 10 g of Compound I dihydrochloride Form 1 was dissolved in 67 mL of ethanol:water 99:1 v/v at about 60° C. (initial concentration: 150 mg/mL). Polish filtration was carried out (0.2 μm PTFE filter). The solution was transferred to a 250 mL vessel at 60° C. and stirred at 50° C. (solution temperature) and 300 rpm for about 5 min. The solution was seeded with about 100 mg (1 wt. %) of Compound I dihydrochloride Form 2, isolated from small-scale crystallization Experiments 12 and 13, from example 4 above. The seed dissolved rapidly. Anti-solvent addition of 10 mL of heptane (1 volume) was carried out at 2 vol/h (Heptane content of 13%). The solution was re-seeded with a further 100 mg (1 wt. %) of Form 2, isolated from small-scale crystallization Experiment 12. The seed persisted and a slurry formed. The slurry was stirred at 50° C. for 1 h and then anti-solvent addition of 131 mL of heptane at 1.5 vol/h was carried out, to reach 60% heptane. […] An additional 2 volumes of ethanol:water 99:1 v/v was added at the beginning of the ASA to mobilize the slurry. Once ASA was complete, the slurry was cooled to 5° C. at 0.1° C./min. The experiment was sub-sampled after about 2 h at 5° C. The slurry was thick but mixing. After 3.5 h at 5° C., an additional 3.6 mL of water was added to increase the water content to 2% (ethanol:water:heptane ratio of 39:2:59 v/v/v). The experiment was sub-sampled again after 2 h at 5° C. with additional water. After a total of 10 h at 5° C., solids were isolated by filtration and washed with 2 volumes of cold (5° C.) ethanol:heptane 40:60 v/v. The solids were filtered and dried under vacuum at ambient temperature (about 21° C.) for 14.5 h, then analyzed by XRPD.

[2] = Thermodynamic solubility study (HPLC of mother liquors); assay type: physicochemical; settings: thermodynamic from solid
Method: To obtain accurate solubility and residual solid form data for amorphous Compound I dihydrochloride, thermodynamic solubility studies were carried out on amorphous input material in selected solvent systems at 50° C. and 5° C. (Table 6).

For CC[C@H]1CN2CCc3cc(OC)c(OC)cc3[C@@H]2C[C@@H]1C[C@H]1NCCc2cc(OC)c(OC)cc21 [Amorphous Compound I dihydrochloride], the “Solid form by XRPD after storage” value [1] was “amorphous Compound I dihydrochloride was obtained”, the solubility thermodynamic at 23 h ([2]; organic solvent or mixture, 2-propanol:heptane 70:30 v/v, 5° C.) was under 10 mg/mL and the solubility thermodynamic at 23 h ([2]; organic solvent or mixture, 2-propanol:heptane 70:30 v/v, 50° C.) was about 20 mg/mL. For the same compound, the solubility thermodynamic at 23 h ([2]; organic solvent or mixture, 2-propanol:heptane 90:10 v/v, 5° C.) was 10 to 40 mg/mL, the solubility thermodynamic at 23 h ([2]; organic solvent or mixture, 2-propanol:heptane 90:10 v/v, 50° C.) was 40 to 115 mg/mL and the solubility thermodynamic at 23 h ([2]; organic solvent or mixture, 2-propanol:water 95:5 v/v, 5° C.) was 10 to 40 mg/mL. It also gave a solubility thermodynamic at 23 h ([2]; organic solvent or mixture, 2-propanol:water 95:5 v/v, 50° C.) of 40 to 115 mg/mL, a solubility thermodynamic at 23 h ([2]; organic solvent or mixture, 2-propanol:water 99:1 v/v, 5° C.) of 10 to 40 mg/mL and a solubility thermodynamic at 23 h ([2]; organic solvent or mixture, 2-propanol:water 99:1 v/v, 50° C.) of 40 to 115 mg/mL. The solubility thermodynamic at 23 h ([2]; organic solvent or mixture, 2-propanol, 5° C.) was 10 to 40 mg/mL, the solubility thermodynamic at 23 h ([2]; organic solvent or mixture, 2-propanol, 50° C., experiment remained unsaturated) was over 215 mg/mL and the solubility thermodynamic at 23 h ([2]; organic solvent or mixture, acetone:water 60:40 v/v, 5° C., experiment remained unsaturated) was over 125 mg/mL. For the same compound, the solubility thermodynamic at 23 h ([2]; organic solvent or mixture, acetone:water 60:40 v/v, 50° C., experiment remained unsaturated) was over 215 mg/mL, the solubility thermodynamic at 23 h ([2]; organic solvent or mixture, acetone:water 70:30 v/v, 5° C., experiment remained unsaturated) was over 125 mg/mL and the solubility thermodynamic at 23 h ([2]; organic solvent or mixture, acetone:water 70:30 v/v, 50° C., experiment remained unsaturated) was over 215 mg/mL. The solubility thermodynamic at 23 h ([2]; organic solvent or mixture, acetone:water 90:10 v/v, 5° C.) was 10 to 40 mg/mL, the solubility thermodynamic at 23 h ([2]; organic solvent or mixture, acetone:water 90:10 v/v, 50° C.) was 40 to 115 mg/mL and the solubility thermodynamic at 23 h ([2]; organic solvent or mixture, ethanol:heptane 60:40 v/v, 5° C.) was under 10 mg/mL. It also gave a solubility thermodynamic at 23 h ([2]; organic solvent or mixture, ethanol:heptane 60:40 v/v, 50° C.) of 40 to 115 mg/mL, a solubility thermodynamic at 23 h ([2]; organic solvent or mixture, ethanol:heptane 80:20 v/v, 5° C.) of 10 to 40 mg/mL and a solubility thermodynamic at 23 h ([2]; organic solvent or mixture, ethanol:heptane 80:20 v/v, 50° C., experiment remained unsaturated) of over 215 mg/mL. It also gave a solubility thermodynamic at 23 h ([2]; organic solvent or mixture, ethanol, 5° C.) of 10 to 40 mg/mL, a solubility thermodynamic at 23 h ([2]; organic solvent or mixture, ethanol, 50° C., experiment remained unsaturated) of over 215 mg/mL and a solubility thermodynamic at 23 h ([2]; water, 5° C.) of 65 mg/mL. It also gave a solubility thermodynamic at 23 h ([2]; water, 50° C., experiment remained unsaturated) of over 215 mg/mL.
